Reference: the supplement of paper PMC10307832

Key:
Experiment in all cases: relative viability (nuclei count vs DMSO), 5 days (fraction); higher = more cells survive
Metformin + Linsitinib = compound: CN(C)C(=N)NC(=N)N [Metformin] + C[C@]1(O)C[C@@H](c2nc(-c3ccc4ccc(-c5ccccc5)nc4c3)c3c(N)nccn32)C1 [Linsitinib] (partner 1 µM)
How it was run: (§1)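 For relative viability, nuclei counts in treated wells were divided by those in vehicle wells. Lung cancer cell lines had been pin-tool dosed in 1536-well plates the day after seeding and cultured for 5 days, then fixed and stained in one step (final 0.05% Triton X-100, 1% formaldehyde, 1 ug/ml Hoechst) and imaged at 4×. Doses were one drug alone or a fixed anchor-drug dose plus five library-drug doses (not always all listed) in √10 steps, and values are duplicate-plate medians.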

Apatinib + Crizotinib = compound: N#CC1(c2ccc(NC(=O)c3cccnc3NCc3ccncc3)cc2)CCCC1 [Apatinib] + C[C@@H](Oc1cc(-c2cnn(C3CCNCC3)c2)cnc1N)c1c(Cl)ccc(F)c1Cl [Crizotinib] (partner 1 µM)
How it was run: as §1

Apatinib + Pemetrexed = compound: N#CC1(c2ccc(NC(=O)c3cccnc3NCc3ccncc3)cc2)CCCC1 [Apatinib] + Nc1nc2[nH]cc(CCc3ccc(C(=O)N[C@@H](CCC(=O)O)C(=O)O)cc3)c2c(=O)[nH]1 [Pemetrexed] (partner 0.2 µM)
How it was run: as §1

Apatinib + Olaparib = compound: N#CC1(c2ccc(NC(=O)c3cccnc3NCc3ccncc3)cc2)CCCC1 [Apatinib] + O=C(c1cc(Cc2n[nH]c(=O)c3ccccc23)ccc1F)N1CCN(C(=O)C2CC2)CC1 [Olaparib] (partner 8 µM)
How it was run: as §1

| Cell Line | relative viability (Metformin + Linsitinib; first compound 31.62 µM) | relative viability (Metformin + Linsitinib; first compound 100 µM) | relative viability (Metformin + Linsitinib; first compound 316.23 µM) | relative viability (Metformin + Linsitinib; first compound 1000 µM) | relative viability (Apatinib + Crizotinib; first compound 0.08 µM) | relative viability (Apatinib + Crizotinib; first compound 0.253 µM) | relative viability (Apatinib + Crizotinib; first compound 0.8 µM) | relative viability (Apatinib + Crizotinib; first compound 2.53 µM) | relative viability (Apatinib + Crizotinib; first compound 8 µM) | relative viability (Apatinib + Pemetrexed; first compound 0.08 µM) | relative viability (Apatinib + Pemetrexed; first compound 0.253 µM) | relative viability (Apatinib + Pemetrexed; first compound 0.8 µM) | relative viability (Apatinib + Pemetrexed; first compound 2.53 µM) | relative viability (Apatinib + Pemetrexed; first compound 8 µM) | relative viability (Apatinib + Olaparib; first compound 0.08 µM) | relative viability (Apatinib + Olaparib; first compound 0.253 µM) | relative viability (Apatinib + Olaparib; first compound 0.8 µM) | relative viability (Apatinib + Olaparib; first compound 2.53 µM) | relative viability (Apatinib + Olaparib; first compound 8 µM) | relative viability (Metformin + Linsitinib; first compound 10 µM) |
| --- | --- | --- | --- | --- | --- | --- | --- | --- | --- | --- | --- | --- | --- | --- | --- | --- | --- | --- | --- | --- |
| NCI-H1915 | 1.22 | 1.15 | 1.14 | 1.11 | 0.945 | 0.864 | 0.855 | 0.819 | 0.78 | 0.503 | 0.493 | 0.512 | 0.408 | 0.392 | 0.262 | 0.257 | 0.266 | 0.264 | 0.239 |  |
| COR-L23 | 0.828 | 0.9 | 0.77 | 0.843 | 0.627 | 0.647 | 0.648 | 0.52 | 0.565 | 0.194 | 0.191 | 0.192 | 0.199 | 0.177 | 0.355 | 0.377 | 0.324 | 0.273 | 0.286 | 0.821 |
| NCI-H3122 | 0.98 | 0.949 | 0.96 | 0.92 | 0.3 | 0.246 | 0.256 | 0.27 | 0.328 | 0.212 | 0.192 | 0.199 | 0.202 | 0.188 | 0.609 | 0.655 | 0.525 | 0.613 | 0.597 | 0.89 |
| LOU-NH91 | 0.876 | 0.986 | 1.09 | 0.905 | 0.76 | 0.751 | 0.722 | 0.69 | 0.629 | 0.418 | 0.396 | 0.424 | 0.336 | 0.303 | 0.976 | 0.885 | 0.783 | 0.87 | 0.825 | 1.01 |
| NCI-H2087 | 0.908 | 0.805 | 0.712 | 0.782 | 0.89 | 0.799 | 0.741 | 0.614 | 0.7 | 0.657 | 0.682 | 0.65 | 0.619 | 0.758 | 0.633 | 0.653 | 0.541 | 0.645 | 0.493 | 0.609 |
| LK-2 | 0.996 | 0.948 | 0.694 | 0.81 | 0.243 | 0.218 | 0.212 | 0.237 | 0.242 | 0.255 | 0.243 | 0.255 | 0.181 | 0.134 | 0.903 | 0.581 | 0.64 | 0.63 | 0.515 | 0.906 |
| NCI-H2347 | 0.89 | 0.973 | 0.862 | 0.943 | 0.795 | 0.751 | 0.772 | 0.578 | 0.645 | 0.477 | 0.404 | 0.449 | 0.409 | 0.409 | 0.634 | 0.485 | 0.583 | 0.517 | 0.493 | 0.753 |
| COR-L 105 | 1.23 | 0.977 | 0.87 | 0.815 | 0.871 | 0.696 | 0.796 | 0.727 | 0.586 | 1.27 | 1.21 | 1.04 | 0.895 | 1.05 | 0.794 | 0.802 | 0.737 | 0.543 | 0.672 | 1.06 |
| NCI-H1437 | 1.09 | 1.11 | 1.1 | 1.19 | 1.01 | 1 | 0.92 | 0.726 | 0.632 | 0.328 | 0.293 | 0.306 | 0.29 | 0.256 | 0.61 | 0.663 | 0.57 | 0.574 | 0.496 | 1.22 |
| SK-LU-1 | 1.08 | 0.674 | 1.08 | 1.03 | 1.04 | 0.806 | 0.761 | 0.785 | 0.566 | 1.09 | 0.995 | 0.918 | 0.544 | 0.32 | 0.503 | 0.453 | 0.435 | 0.549 | 0.436 | 0.947 |
| NCI-H1755 | 0.84 | 0.871 | 0.843 | 0.914 | 0.858 | 0.885 | 0.911 | 0.803 | 0.769 | 0.423 | 0.441 | 0.402 | 0.329 | 0.364 | 0.846 | 0.892 | 0.835 | 0.876 | 0.753 | 0.842 |
| NCI-H2405 | 0.92 | 0.981 | 0.882 | 0.436 | 0.936 | 0.863 | 0.883 | 0.762 | 0.811 | 1.15 | 1.1 | 1.08 | 0.898 | 0.867 | 0.916 | 0.883 | 0.837 | 0.821 | 0.752 | 0.845 |
| NCI-H1993 | 0.73 | 0.838 | 0.686 | 0.705 | 0.943 | 0.868 | 0.782 | 0.801 | 0.68 | 0.593 | 0.566 | 0.605 | 0.549 | 0.549 | 0.991 | 1.05 | 1.05 | 0.984 | 1.04 | 0.719 |
| NCI-H322M | 0.954 | 0.934 | 0.864 | 0.915 | 0.917 | 0.925 | 0.946 | 0.825 | 0.776 | 0.605 | 0.633 | 0.623 | 0.593 | 0.54 | 0.791 | 0.759 | 0.686 | 0.772 | 0.805 | 1.04 |
| EMC-BAC-2 | 0.812 | 0.799 | 0.783 | 0.853 | 0.726 | 0.73 | 0.764 | 0.633 | 0.475 | 0.452 | 0.465 | 0.422 | 0.406 | 0.401 | 0.57 | 0.507 | 0.44 | 0.363 | 0.319 | 0.795 |
| NCI-H2228 | 0.973 |  | 0.583 | 0.889 | 0.542 | 0.418 | 0.506 | 0.42 | 0.262 | 0.324 | 0.312 | 0.356 | 0.208 | 0.192 | 0.837 | 0.754 | 0.456 | 0.58 | 0.323 | 0.542 |
